Measurements as given in patent publication USRE38257E1, “Piperdine derivatives and hypotensives containing the same” (Ajinomoto Co., Inc., priority 1988, dated 2003).
Counter-ions that a name gives are not always drawn.

System: male spontaneously hypertensive rats
Test: Decrease in systolic blood pressure in spontaneously hypertensive rats after intravenous bolus injection, indirect (tail-cuff) method
Format: in vivo, rat
Conditions: for Decrease in systolic blood pressure (mmHg) time after administration (hour) 0.5: 0.5 hour after administration; for Decrease in systolic blood pressure (mmHg) time after administration (hour) 4: 4 hours after administration
Protocol: As test animals, four male spontaneously hypertensive rats (weight 400 to 440 g) that were sufficiently adapted for feeding and in which hypertension was confirmed were used.
Physiological saline aqueous solution containing 2.5% Nicolle and 2.5% ethanol of sample was intravenously administered by bolus injection at a dose of 1 ml per 1 kg of body weight. Systolic blood pressure after administration was measured by the indirect (tail-cuff) method.

[1] = dose 10 mg/kg i.v. bolus, hydrochloride, 10 mg/kg

Molecule	Decrease in systolic blood pressure (mmHg) time after administration (hour) 0.5 (dose 10 mg/kg i.v. bolus) [mmHg]	Decrease in systolic blood pressure (mmHg) time after administration (hour) 4 (dose 10 mg/kg i.v. bolus) [mmHg]	also measured
1-(4-Acetylaminominocinnamyl)-4-(5H-Dibenzo[a,d]thiepiz-5-ylidene)-1-piperidine hydrochloride [Example 327]			Decrease in systolic blood pressure (mmHg) time after administration (hour) 0.5 (dose 3 mg/kg i.v. bolus): −10 mmHg; Decrease in systolic blood pressure (mmHg) time after administration (hour) 4 (dose 3 mg/kg i.v. bolus): −43 mmHg
1-(4-Methoxyxyxlohexyl)-4-(4-(5H-dibenzo[a,d]cyclohepten-5-ylidene)-1-piperidinyl)butane hydroxybutane hydrochloride [Example 208]	−131	−19	
1-Acetoxy-4-(4-(5H-dibenzo[a,d]cyclohepten-5-ylidene)-1-piperidinyl)-(3,4-dimethoxy)phenylButane hydroxybutane hydrochloride [Example 206]	−61	−27	
2,6-Dimethyl-4-(4-(4-(5H-Dibenzo[a,d]cyclohepten-5-ylidene)-1-piperidinyl)-1-butyl)-5-methylpyrydine-3,5-dicarboxylate dihydrochloride [Example 288]	−92	−14	
2,6-Dimethyl-4-(4-(4-(5H-dibenzo[a,d]cyclohepten-5-ylidene)-1-piperidinyl)butyl)-5-methyl-1,4-dihydropyrydine-3,5-dicarboxylate hydrochloride [Example 285]	−62	−7	
2-(2-4-Dibenzo[a,d]cyclohepten-5-ylidene)-1-piperidinyl)-1-ethyl)-5′,6′-dimethoxy-1-indanone hydrochloride [Example 261]	−123	−11	
3-(4-(5H-Dibenzo[a,d]cyclohepten-5-ylidene)-1-piperidinyl)-1-(2-pyridyl)-1-propane hydrochloride [Example 284]			Decrease in systolic blood pressure (mmHg) time after administration (hour) 0.5 (dose 3 mg/kg i.v. bolus): −151 mmHg; Decrease in systolic blood pressure (mmHg) time after administration (hour) 4 (dose 3 mg/kg i.v. bolus): −40 mmHg
4-(2-(4-(5H-Dibenzo[a,d]cyclohepten-5-ylidene)-1-piperidinyl)-1-ehtyl)-2,4,5,6-tetramethyl-1,4-dihydropyridino-3,5-dicarboxylate hydrochloride [Example 311]	−90	−18	
4-(4-(5H-Dibenzo[a,d]cyclohepten-5-ylidene)-1-piperidinyl)-3′,4′-dimethoxybutyrophenone N-oxide [Example 271]	−17	−13	
4-(4-(5H-Dibenzo[a,d]cyclohepten-5-ylidene)-1-piperidinyl)-4′-trimethoxybutyrophenone hydrochloride [Example 172]	−115	−25	
4-(5H-Dibenzo[a,d]cyclohepten-5-ylidene)-1-(4-N-imidazolylmethyl)cinnamyl)piperidine dihydroxybutane hydrochloride [Example 210]			Decrease in systolic blood pressure (mmHg) time after administration (hour) 0.5 (dose 1 mg/kg i.v. bolus): −78 mmHg; Decrease in systolic blood pressure (mmHg) time after administration (hour) 4 (dose 1 mg/kg i.v. bolus): −69 mmHg
5-(4-(5H-Dibenzo[a,d]cyclohepten-5-ylidene)-1-piperidine hydrochloride [Example 116]	−36	−12	
5-(4-(5H-Dibenzo[a,d]cyclohepten-5-ylidene)-1-piperidinyl)-2-isopropyl-2-phenylvaleronitrile hydrochloride [Example 122]	−120	−62	
5-(4-(5H-Dibenzo[a,d]cyclohepten-5-ylidene)-1-piperidinyl)-2-phenylvaleronitrile hydrochloride [Example 121]	−42	−19	
5-(4-(5H-Dibenzo[a,d]cyclohepten-5-ylidene)-1-piperidinyl-2-(3,4-dimethoxyphenyl)valeronitrile hydrochloride [Example 123]	−55	−7	
CCCCCCN1CCC(=C2c3ccccc3C=Cc3ccccc32)CC1.Cl [Example 1, 4-(5H-Dibenzo[a,d]cyclohepten-5-ylidene)-1-hexylpiperidine hydrochloride]	−67	1	
CCCCCCCCN1CCC(=C2c3ccccc3C=Cc3ccccc32)CC1.Cl [Example 2, 4-(5H-Dibenzo[a,d]cyclohepten-5-ylidene)-1-octylpiperidine hydrochloride]	−125	−34	
CCCCCCCCCCN1CCC(=C2c3ccccc3C=Cc3ccccc32)CC1.Cl [Example 3, 1-Decyl-4-(5H-dibenzo[a,d]cyclohepten-5-ylidene)piperidine hydrochloride]			Decrease in systolic blood pressure (mmHg) time after administration (hour) 0.5 (dose 3 mg/kg i.v. bolus): −110 mmHg; Decrease in systolic blood pressure (mmHg) time after administration (hour) 4 (dose 3 mg/kg i.v. bolus): −22 mmHg
CCCCCCCCCCCCN1CCC(=C2c3ccccc3C=Cc3ccccc32)CC1.Cl [Example 4, 4-(5H-Dibenzo[a,d]cyclohepten-5-ylidene)-1-dodecylpiperidine hydrochloride]	−76	0	
CCCCCCCCCCCCCCN1CCC(=C2c3ccccc3C=Cc3ccccc32)CC1.Cl [Example 5, 4-(5H-Dibenzo[a,d]cyclohepten-5-ylidene)-1-tetradecylpiperidine hydrochloride]	−56	−20	
C1=Cc2ccccc2C(=C2CCN(CC3CCCCC3)CC2)c2ccccc21.Cl [Example 7, 1-Cyclohexylmethyl-4-(5H-dibenzo[a,d]cyclohepten-5-ylidene)piperidine hydrochloride]	−57	−15	
C1=Cc2ccccc2C(=C2CCN(CCC3CCCCC3)CC2)c2ccccc21.Cl [Example 8, 1-Cyclohexyl-2-(4-(5H-dibenzo[a,d]cyclohepten-5-ylidene)-1-piperidinyl)ethane hydrochloride]	−95	−21	
C1=Cc2ccccc2C(=C2CCN(CCCC3CCCCC3)CC2)c2ccccc21.Cl [Example 9, 1-Cyclohexyl-3-(4-(5H-dibenzo[a,d]cyclohepten-5-ylidene)-1-piperidinyl)propane hydrochloride]	−91	−19	
C1=Cc2ccccc2C(=C2CCN(CCCCC3CCCCC3)CC2)c2ccccc21.Cl [Example 10, 1-Cyclohexyl-4-(4-(5H-dibenzo[a,d]cyclohepten-5-ylidene)-1-piperidinyl)butane hydrochloride]			Decrease in systolic blood pressure (mmHg) time after administration (hour) 0.5 [1]: −129 mmHg; Decrease in systolic blood pressure (mmHg) time after administration (hour) 4 [1]: −21 mmHg
C1=Cc2ccccc2C(=C2CCN(CCCCCC3CCCCC3)CC2)c2ccccc21 [Example 11, 1-Cyclohexyl-5-(4-(5H-dibenzo[a,d]cyclohepten-5-ylidene)-1-piperidinyl)pentane hydrochloride]	−166		
C1=Cc2ccccc2C(=C2CCN(Cc3ccccc3)CC2)c2ccccc21.Cl [Example 12, 1-Benzyl-4-(5H-dibenzo[a,d]cyclohepten-5-ylidene)piperidine hydrochloride]	−27	1	
C1=Cc2ccccc2C(=C2CCN(CCc3ccccc3)CC2)c2ccccc21.Cl [Example 13, 2-(4-(5H-Dibenzo[a,d]cyclohepten-5-ylidene)-1-piperidinyl)-1-phenylethane hydrochloride]	−47	4	
C1=Cc2ccccc2C(=C2CCN(CCCc3ccccc3)CC2)c2ccccc21.Cl [Example 14, 3-(4-(5H-Dibenzo[a,d]cyclohepten-5-ylidene)-1-piperidinyl)-1-phenylpropane hydrochloride]	−105	−10	
C1=Cc2ccccc2C(=C2CCN(CCCCc3ccccc3)CC2)c2ccccc21.Cl [Example 15, 4-(4-(5H-Dibenzo[a,d]cyclohepten-5-ylidene)-1-piperidinyl)-1-phenylbutane hydrochloride]	−130	−136	
C1=Cc2ccccc2C(=C2CCN(CCCCCc3ccccc3)CC2)c2ccccc21.Cl [Example 16, 5-(4-(5H-Dibenzo[a,d]cyclohepten-5-ylidene)-1-piperidinyl)-1-phenylpentane hydrochloride]	−114	−30	
